Reference: patent publication US8633246B2, “Omega-3 fatty acids for osteoarthritis” (Hill's Pet Nutrition, Inc., priority 2003, dated 2014)

Columns and labels:
Assay type in all cases: cell-based, dog
[1] = system: canine articular cartilage explants; test: Glycosaminoglycan (GAG) release from cultured canine cartilage explants
Protocol: This example illustrates the release of glycosaminoglycan elicited by omega-3 fatty acids in cultured canine cartilage tissue.
Articular cartilage was obtained from left and right stifles (both femoral condyles and tibial plateau) of dogs. Cartilage explants cultured for 3 days in medium with 10% fetal bovine serum, then washed 3 times in serum free medium. Explants then cultured for 6 days in serum free medium containing 0, 100 or 300 μg/ml n3 fatty acid (EPA, ALA or DHA). After this period in fatty acid medium, all explants were washed 3 times in fatty acid free/serum free medium. Explants were then cultured individually for 4 days in 1 ml of fatty acid and serum free medium containing no additives (C), 10^−6M retinoic acid (RA) or 50 ng/ml oncostatin M (OSM). Note that not all treatments were possible on all dogs because of cartilage availability. The release of proteoglycan into the medium (μg/mg wet weight) was measured at the termination of culture. In the tables below, the mean and standard deviation of glycosaminoglycan (GAG) release for the triplicate cultures for each of the 4 dogs are given. In addition, the media lactate (μg/mg wet weight) concentrations were given for each treatment.

[2] = system: canine cartilage; test: Protein synthesis, 35S-methionine and 35S-cysteine incorporation into cartilage matrix; conditions: no catabolic stimuli
Protocol: (§1) To assess the potential effect of n-3 fatty acids on protein and proteoglycan metabolism in canine cartilage, cultures were set up as described in Example 1 except for the final 4 days of culture, no catabolic stimuli were added (i.e., all “control” cultures). During the final 24 hours of culture (1) ^35SO4, or (ii) ^35S-methionine and ^35S-cysteine, were added to the medium to radiolabel newly synthesized proteoglycans and proteins, respectively. The incorporation of radiolabel into the cartilage matrix was measured at the termination of culture. No attempt was made to quantitate loss of radiolabelled material from the cartilage over the 24-hour labeling period. The mean and standard deviation of the incorporation of ^35SO4 (“PG”) or ^35S-methionine and ^35S-cysteine (“PROT”) as DPM/mg wet weight are shown in Table 5 below, […]

[3] = system: canine cartilage; test: Proteoglycan synthesis, 35SO4 incorporation into cartilage matrix; conditions: no catabolic stimuli
Protocol: as §1

Row | SMILES | GAG Mean ([1]; Dog 2, C, 100 μg/ml) | GAG Mean ([1]; Dog 2, C, 300 μg/ml) | GAG Mean ([1]; Dog 2, OSM, 100 μg/ml) [μg/mg wet weight] | GAG Mean ([1]; Dog 2, OSM, 300 μg/ml) [μg/mg wet weight] | GAG Mean ([1]; Dog 3, C, 100 μg/ml) [μg/mg wet weight] | GAG Mean ([1]; Dog 3, C, 300 μg/ml) [μg/mg wet weight] | GAG Mean ([1]; Dog 3, OSM, 100 μg/ml) [μg/mg wet weight] | GAG Mean ([1]; Dog 3, OSM, 300 μg/ml) [μg/mg wet weight] | GAG Mean ([1]; Dog 3, RA, 100 μg/ml) [μg/mg wet weight] | GAG Mean ([1]; Dog 3, RA, 300 μg/ml) [μg/mg wet weight] | GAG Mean ([1]; Dog 4, C, 100 μg/ml) [μg/mg wet weight] | GAG Mean ([1]; Dog 4, C, 300 μg/ml) [μg/mg wet weight] | GAG Mean ([1]; Dog 4, OSM, 100 μg/ml) [μg/mg wet weight] | GAG Mean ([1]; Dog 4, OSM, 300 μg/ml) [μg/mg wet weight] | GAG Mean ([1]; Dog 4, RA, 100 μg/ml) [μg/mg wet weight] | GAG Mean ([1]; Dog 4, RA, 300 μg/ml) [μg/mg wet weight] | PROT Mean (incorporation of 35S-methionine and 35S-cysteine) ([2]; 100 μg/ml) [DPM/mg wet weight] | PROT Mean (incorporation of 35S-methionine and 35S-cysteine) ([2]; 300 μg/ml) [DPM/mg wet weight] | PG Mean (incorporation of 35SO4) ([3]; 100 μg/ml) [DPM/mg wet weight] | PG Mean (incorporation of 35SO4) ([3]; 300 μg/ml) [DPM/mg wet weight] | also measured
1 | CC/C=C\C/C=C\C/C=C\CCCCCCCC(=O)O [ALA, alpha-linolenic acid] | 1.12 μg/mg wet weight | .993 μg/mg wet weight | 8.497 | 6.42 | 2.117 | 2.447 | 22.033 | 23.467 | 20.44 | 24.467 | 2.103 | 1.533 | 11.7 | 19.557 | 12.547 | 14.093 | 503.667 | 393.667 | 246.333 | 443.0 | change in GAG release ([1]; Dog 2, OSM treated cultures): not ALA or DHA significantly decreased
2 | CC/C=C\C/C=C\C/C=C\C/C=C\C/C=C\C/C=C\CCC(=O)O [DHA, Docosahexaenoic acid] | .640 μg/mg wet weight | .843 μg/mg wet weight | 8.567 | 6.073 | 1.903 | 1.55 | 11.667 | 11.630 | 21.093 | 19.457 | 2.343 | 2.307 | 24.967 | 16.4 | 11.28 | 11.3 | 503.667 | 564.333 | 156.0 | 123.333 | 
3 | CC/C=C\C/C=C\C/C=C\C/C=C\C/C=C\CCCC(=O)O [EPA, Eicosapentaenoic acid] | .340 μg/mg wet weight | .573 μg/mg wet weight | 5.25 | 2.83 | 1.673 | 1.567 | 17.85 | 8.1 | 16.223 | 1.537 | 2.687 | 2.1 | 15.883 | 13.493 | 14.393 | 9.093 | 442.0 | 504.0 | 537.333 | 275.667 | GAG Mean ([1]; Dog 1, C (no additives), 100 μg/ml): 1.590 μg/mg wet weight; GAG Mean ([1]; Dog 1, C (no additives), 300 μg/ml): 1.036 μg/mg wet weight; GAG Mean ([1]; Dog 1, OSM (50 ng/ml oncostatin M), 100 μg/ml): 6.293 μg/mg wet weight; GAG Mean ([1]; Dog 1, OSM, 300 μg/ml): 2.167 μg/mg wet weight; GAG Mean ([1]; Dog 1, RA (10^−6M retinoic acid), 100 μg/ml): 8.677 μg/mg wet weight; GAG Mean ([1]; Dog 1, RA, 300 μg/ml): 1.593 μg/mg wet weight
